Test results published in patent US20230210797A1, “PREVENTING AND TREATING HYPOGLYCEMIA” (DIAMYD MEDICAL AB, priority 2019, published 2023).

Tests used:
[1] = tested on: epinephrine; assay: Hypoglycemic clamp: plasma epinephrine levels; format: in vivo, human; conditions: for epinephrine levels, Change from baseline, Mean (SD) / epinephrine levels, Change from baseline, Median (Min, Max) / epinephrine levels, Observed value, Mean (SD) / epinephrine levels, Observed value, Median (Min, Max): C-peptide undetectable
Experimental: (§1) In order to evaluate the counterregulatory hormone response to hypoglycemia, a hypoglycemic clamp will be performed. The Hypoglycemic Clamp must be performed according to the instructions in the Operations Manual. (Appendix 3)
(§2) The patient should: • Come to the study site following an overnight fast (>10 hours), i.e. the patient may not eat but is permitted to drink water • Not have taken the Remygen and, if applicable, Alprazolam dose in the morning • Not take short acting/direct acting insulin within 6 hours before the investigation. • The patient is allowed to take base-insulin day/night before, but not in the morning before the investigation.
(§3) Patients with CSII (insulin pump) must continue with their basal dose insulin, but not add bolus dose during the last 6 hours before the investigation.
(§4) If a patient has a blood sugar level <4 mmol/L in the morning of the scheduled visit, the patient is allowed to take dextrose tablets and then come to the study site. The patient is allowed to perform the investigation if the blood sugar level is >4 mmol/L.
(§5) In the dose-escalation part of the study, the patient will take study drug 30 min prior to start of the hypoglycemic clamp. In the main study, the study drug will instead be taken after finalization of the hypoglycemic clamp. Baseline blood samples will be obtained for glucose, glucagon, epinephrine, norepinephrine, growth hormone and cortisol. The clamp will then be initiated by an intravenous insulin infusion at a rate of 2 mU×kg^−1×min^−1. Glucose 100 mg/ml will then be administered in variable infusion rates to clamp the blood glucose concentration at 5.5 mmol/land then at 2.5 mmol/land kept stable for 30 min. Blood glucose will be evaluated repeatedly in order to find the optimal glucose infusion rate. Blood sampling to determined levels of counterregulatory hormones as described above will be performed at each of these target levels when a stable glucose concentration has been reached. The insulin infusion will thereafter be terminated and the patient is allowed to eat and will be observed until normoglycemia is achieved. If necessary, additional glucose administration will be given to allow blood glucose concentrations to normalize.
(§6) Plasma glucose was first lowered to normoglycemic levels (5.5 mmol/L) and hormone levels monitored, and then to hypoglycemic levels (2.5 mmol/L) and hormone levels monitored. Difference was calculated as a measurement of the response to hypoglycemia.

[2] = tested on: glucagon; assay: Hypoglycemic clamp: plasma glucagon levels; format: in vivo, human; conditions: for Glucagon levels, Change from baseline, Mean (SD) / Glucagon levels, Change from baseline, Median (Min, Max) / Glucagon levels, Observed value, Mean (SD) / Glucagon levels, Observed value, Median (Min, Max): C-peptide undetectable
Experimental: as §1, §2, §3, §4, §5, §6

[3] = Visit 5, 200 mg GABA per day, Event 2.5 mmol/L
[4] = Visit 5, 200 mg GABA per day, Event 5.5 mmol/L
[5] = Visit 5, 200 mg GABA per day, Event Baseline
[6] = Visit 5, 200 mg GABA per day, Event Diff 2.5-5.5 mmol/L
[7] = Visit 7, 600 mg GABA per day, Event 2.5 mmol/L
[8] = Visit 7, 600 mg GABA per day, Event 5.5 mmol/L
[9] = Visit 7, 600 mg GABA per day, Event Baseline
[10] = Visit 7, 600 mg GABA per day, Event Diff 2.5-5.5 mmol/L
[11] = Visit 9, 1200 mg GABA per day, Event 2.5 mmol/L
[12] = Visit 9, 1200 mg GABA per day, Event 5.5 mmol/L
[13] = Visit 9, 1200 mg GABA per day, Event Baseline
[14] = Visit 9, 1200 mg GABA per day, Event Diff 2.5-5.5 mmol/L
[15] = change in levels when clamping to 2.5 mmol/L from 5.5 mmol/L

## NCCCC(=O)O [GABA, Gamma-amino butyric acid]
[1]; [3]
  epinephrine levels, Change from baseline, Mean (SD): 0.800 (0.720) nmol/L
  epinephrine levels, Change from baseline, Median (Min, Max): 0.400 (0.30, 2.00) nmol/L
  epinephrine levels, Observed value, Mean (SD): 1.640 (1.014) nmol/L
  epinephrine levels, Observed value, Median (Min, Max): 1.200 (0.50, 2.90) nmol/L
[1]; [4]
  epinephrine levels, Change from baseline, Mean (SD): 0.000 (0.000) nmol/L
  epinephrine levels, Change from baseline, Median (Min, Max): 0.000 (0.00, 0.00) nmol/L
  epinephrine levels, Observed value, Mean (SD): 0.150 (0.000) nmol/L
  epinephrine levels, Observed value, Median (Min, Max): 0.150 (0.15, 0.15) nmol/L
[1]; [5]
  epinephrine levels, Change from baseline, Mean (SD): 0.000 (0.000) nmol/L
  epinephrine levels, Change from baseline, Median (Min, Max): 0.000 (0.00, 0.00) nmol/L
  epinephrine levels, Observed value, Mean (SD): 0.150 (0.000) nmol/L
  epinephrine levels, Observed value, Median (Min, Max): 0.150 (0.15, 0.15) nmol/L
[1]; [6]
  epinephrine levels, Change from baseline, Mean (SD): 0.800 (0.720) nmol/L
  epinephrine levels, Change from baseline, Median (Min, Max): 0.400 (0.30, 2.00) nmol/L
  epinephrine levels, Observed value, Mean (SD): 1.490 (1.014) nmol/L
  epinephrine levels, Observed value, Median (Min, Max): 1.050 (0.35, 2.75) nmol/L
[1]; [7]
  epinephrine levels, Change from baseline, Mean (SD): 0.560 (0.585) nmol/L
  epinephrine levels, Change from baseline, Median (Min, Max): 0.800 (−0.40, 1.10) nmol/L
  epinephrine levels, Observed value, Mean (SD): 1.400 (0.579) nmol/L
  epinephrine levels, Observed value, Median (Min, Max): 1.700 (0.60, 2.00) nmol/L
[1]; [8]
  epinephrine levels, Change from baseline, Median (Min, Max): 0.000 (0.00, 0.25) nmol/L
  epinephrine levels, Observed value, Median (Min, Max): 0.150 (0.15, 0.40) nmol/L
[1]; [9]
  epinephrine levels, Change from baseline, Mean (SD): 0.000 (0.000) nmol/L
  epinephrine levels, Change from baseline, Median (Min, Max): 0.000 (0.00, 0.00) nmol/L
  epinephrine levels, Observed value, Mean (SD): 0.150 (0.000) nmol/L
  epinephrine levels, Observed value, Median (Min, Max): 0.150 (0.15, 0.15) nmol/L
[1]; [10]
  epinephrine levels, Change from baseline, Mean (SD): 0.510 (0.564) nmol/L
  epinephrine levels, Change from baseline, Median (Min, Max): 0.600 (−0.40, 1.10) nmol/L
  epinephrine levels, Observed value, Mean (SD): 1.200 (0.630) nmol/L
[1]; [11]
  epinephrine levels, Change from baseline, Mean (SD): 0.670 (0.709) nmol/L
  epinephrine levels, Change from baseline, Median (Min, Max): 0.500 (0.00, 1.70) nmol/L
  epinephrine levels, Observed value, Mean (SD): 1.510 (1.070) nmol/L
  epinephrine levels, Observed value, Median (Min, Max): 1.200 (0.15, 2.60) nmol/L
[1]; [12]
  epinephrine levels, Change from baseline, Mean (SD): 0.000 (0.000) nmol/L
  epinephrine levels, Change from baseline, Median (Min, Max): 0.000 (0.00, 0.00) nmol/L
  epinephrine levels, Observed value, Mean (SD): 0.150 (0.000) nmol/L
  epinephrine levels, Observed value, Median (Min, Max): 0.150 (0.15, 0.15) nmol/L
[1]; [13]
  epinephrine levels, Change from baseline, Mean (SD): 0.000 (0.000) nmol/L
  epinephrine levels, Change from baseline, Median (Min, Max): 0.000 (0.00, 0.00) nmol/L
  epinephrine levels, Observed value, Mean (SD): 0.150 (0.000) nmol/L
  epinephrine levels, Observed value, Median (Min, Max): 0.150 (0.15, 0.15) nmol/L
[1]; [14]
  epinephrine levels, Change from baseline, Mean (SD): 0.670 (0.709) nmol/L
  epinephrine levels, Change from baseline, Median (Min, Max): 0.500 (0.00, 1.70) nmol/L
  epinephrine levels, Observed value, Median (Min, Max): 1.050 (0.00, 2.45) nmol/L
[1]; [15]
  Counter regulatory response of Epinephrine, effect of GABA treatment: increased
[2]; [3]
  Glucagon levels, Change from baseline, Mean (SD): 2.12 pmol/L
  Glucagon levels, Change from baseline, Median (Min, Max): 1.60 pmol/L
  Glucagon levels, Observed value, Mean (SD): 4.88 (2.44) pmol/L
  Glucagon levels, Observed value, Median (Min, Max): 4.80 pmol/L
[2]; [4]
  Glucagon levels, Change from baseline, Mean (SD): -0.11 pmol/L
  Glucagon levels, Change from baseline, Median (Min, Max): 0.00 pmol/L
  Glucagon levels, Observed value, Mean (SD): 2.08 (1.33) pmol/L
  Glucagon levels, Observed value, Median (Min, Max): 2.20 pmol/L
[2]; [5]
  Glucagon levels, Change from baseline, Mean (SD): 0.46 pmol/L
  Glucagon levels, Change from baseline, Median (Min, Max): 0.60 pmol/L
  Glucagon levels, Observed value, Mean (SD): 3.92 (1.03) pmol/L
  Glucagon levels, Observed value, Median (Min, Max): 3.60 pmol/L
[2]; [6]
  Glucagon levels, Change from baseline, Mean (SD): 2.23 pmol/L
  Glucagon levels, Change from baseline, Median (Min, Max): 1.85 pmol/L
  Glucagon levels, Observed value, Mean (SD): 2.80 (2.07) pmol/L
  Glucagon levels, Observed value, Median (Min, Max): 2.60 pmol/L
[2]; [7]
  Glucagon levels, Change from baseline, Mean (SD): 1.64 pmol/L
  Glucagon levels, Change from baseline, Median (Min, Max): 1.40 pmol/L
  Glucagon levels, Observed value, Median (Min, Max): 4.20 pmol/L
[2]; [8]
  Glucagon levels, Change from baseline, Mean (SD): -0.66 pmol/L
  Glucagon levels, Change from baseline, Median (Min, Max): -0.60 pmol/L
  Glucagon levels, Observed value, Mean (SD): 1.53 (1.32) pmol/L
  Glucagon levels, Observed value, Median (Min, Max): 0.75 pmol/L
[2]; [9]
  Glucagon levels, Change from baseline, Mean (SD): -0.42 pmol/L
  Glucagon levels, Change from baseline, Median (Min, Max): -0.70 pmol/L
  Glucagon levels, Observed value, Mean (SD): 3.04 (0.66) pmol/L
  Glucagon levels, Observed value, Median (Min, Max): 3.10 pmol/L
[2]; [10]
  Glucagon levels, Change from baseline, Mean (SD): 2.30 pmol/L
  Glucagon levels, Change from baseline, Median (Min, Max): 2.10 pmol/L
  Glucagon levels, Observed value, Mean (SD): 2.87 (1.96) pmol/L
  Glucagon levels, Observed value, Median (Min, Max): 2.95 pmol/L
[2]; [11]
  Glucagon levels, Change from baseline, Mean (SD): 3.16 pmol/L
  Glucagon levels, Change from baseline, Median (Min, Max): 3.30 pmol/L
  Glucagon levels, Observed value, Mean (SD): 5.92 (3.70) pmol/L
  Glucagon levels, Observed value, Median (Min, Max): 5.60 pmol/L
[2]; [12]
  Glucagon levels, Change from baseline, Mean (SD): -0.58 pmol/L
  Glucagon levels, Change from baseline, Median (Min, Max): -0.80 pmol/L
  Glucagon levels, Observed value, Mean (SD): 1.61 (1.18) pmol/L
  Glucagon levels, Observed value, Median (Min, Max): 0.75 pmol/L
[2]; [13]
  Glucagon levels, Change from baseline, Mean (SD): 0.96 pmol/L
  Glucagon levels, Change from baseline, Median (Min, Max): 0.50 pmol/L
  Glucagon levels, Observed value, Median (Min, Max): 3.90 pmol/L
[2]; [14]
  Glucagon levels, Change from baseline, Mean (SD): 3.74 pmol/L
  Glucagon levels, Change from baseline, Median (Min, Max): 3.30 pmol/L
  Glucagon levels, Observed value, Mean (SD): 4.31 (4.33) pmol/L
  Glucagon levels, Observed value, Median (Min, Max): 2.60 pmol/L
[2]; [15]
  Counter regulatory response of Glucagon, effect of GABA treatment: increased
[2]; clamped to 5.5 mmol/L
  Normoglycemic levels of Glucagon, effect of GABA treatment: decrease
[2]; type 1 diabetes individuals with pathologically increased glucagon
  Circulating glucagon concentrations, effect of GABA: lower
